The conditions of this series: 298.44 K, Pendant drop shape.

± gives the expanded uncertainty stated by the source.

By surface tension liquid-gas is commonly meant the force per length acting along the surface. Regarding `O` [water], the surface tension liquid-gas worked out at 71.9 ± 0.6 mN/m.
